In paper PMC11541513, “Inhibitory Effects of Mangifera indica Secondary Metabolites and Their Synthetic Derivatives against SARS-CoV-2 M^pro and NS2B/NS3 (ZIKV and DENV-2)” (ACS Omega, 2024):
“And” between values parts separate entries of the source, which are not always exact repeats. Identical values can stand only once. Like-named read-outs stand apart in the source and are kept apart here.

Columns and labels:
SARS-CoV-2 M^pro = molecular target: T1, SARS-CoV-2 M^pro (Severe acute respiratory syndrome coronavirus 2, UniProt P0DTD1); experiment: SARS-CoV-2 M^pro inhibition assay (chromogenic peptide substrate); assay type: biochemical; details: for IC50: M^pro, substrate 200 μM; for inhibition at 200 µM: read-out: effect at 200 μM (%); for obs.: observation at the end of the M^pro experiment; for solubility during the biological testing: result in words, M^pro testing
T1 construct: 30 μL of Mpro enzyme (Sigma-Aldrich) at a final concentration of 10 μg/mL; purchased Sigma-Aldrich
Method: Inhibitory effects against M^pro of all compounds were evaluated based on the experimental procedure provided by the manufacturer with some modifications.
[…] of chemicals dissolved in DMSO, with a final concentration of 200 μM, were put in triplicate to each well of a 96-well flat bottom microplate. After that, the plate was incubated for 10 min at room temperature with 30 μL of Mpro enzyme (Sigma-Aldrich) at a final concentration of 10 μg/mL diluted in buffer containing 25 mM HEPES (Sigma-Aldrich) and 0.2% of Tween-20 (Sigma-Aldrich). Furthermore, the chromogenic peptide substrate (Thr-Ser-Ala-Val-Leu-Gln-pNA, Sigma-Aldrich) was added in a volume of 10 μL to each well, at a final concentration of 200 μM and incubated for another 45 min at 37 °C. […] As directed by the manufacturer, with minor modifications, the experiment was carried out to ascertain the half-maximum inhibitory concentration (IC50) that may block the activity of the M^pro enzyme. […] The plate was then kept at room temperature for 10 min. Following this time interval, 10 μL of a 200 μM final concentration of chromogenic peptide substrate (Sigma-Aldrich) was added to each well, and the mixture was incubated for an additional 45 min at 37 °C.

[1] = Cytotoxicity against THP-1 cells (resazurin); assay type: cell-based; details: human, THP-1 cells differentiated with PMA, read-out: CC50 ± SD (μM) THP-1
Method: (§1) In a 96-well flat bottom microplate, THP-1 cells (12 × 10^4 cells/well) were seeded with 180 μL of RPMI 1640 medium (Sigma-Aldrich) without phenol red supplemented with 10% FBS (Sigma-Aldrich), 2 mM L-glutamine (Gibco), […] (Sigma-Aldrich), 10 U/mL penicillin (Gibco), and 10 μg/mL streptomycin (Gibco) in the presence of 100 ng/mL of phorbol-12-myristate-13-acetate (PMA) (Sigma-Aldrich). The microplate was then incubated at 37 °C in a 5% CO2 atmosphere for 72 h. Vero cells ([…]) were seeded in 180 μL of RPMI 1640 media (Sigma-Aldrich), which was then supplemented with 10% FBS (Sigma-Aldrich), 10 U/mL penicillin (Gibco), and 10 μg/mL streptomycin (Gibco). The cells were then incubated for 24 h at 37 °C in a 5% CO2 environment. Each target chemical, diluted in RPMI-1640 media (Sigma-Aldrich) without FBS, at doses of 150, 50, 16.7, and 5.6 μM, was applied in 20 μL to each of the two cell lines. The positive and negative controls were 50 and 0.3% DMSO (Sigma-Aldrich), respectively. The plates were incubated in an environment containing 5% CO2 for 67 h at 37 °C. Next, 20 μL of resazurin (250 μg/mL) from Sigma-Aldrich was added, and the mixture was incubated at 37 °C for 5 h. The microplate was measured using a Tecan Model Infinite M200 spectrophotometer at 530 and 590 nm in wavelengths. Every experiment was run three times.[23],[24]

[2] = Cytotoxicity against Vero cells (resazurin); assay type: cell-based; details: African green monkey, read-out: CC50 ± SD (μM) Vero
Method: as §1

ZIKV NS2B/NS3 = molecular target: T2, ZIKV NS2B/NS3 (Zika virus, UniProt Q32ZE1); experiment: ZIKV NS2B/NS3 protease fluorogenic substrate assay; assay type: biochemical; details: for inhibition at 100 µM: read-out: screening at 100 μM (%); for mechanism of inhibition: ZIKV NS2B/NS3, IC50 at four substrate concentrations, Dixon plots; for inhibition at 20 µM: read-out: screening at 20 μM (%)
T2 construct: tested against the nonstructural protease of ZIKV (NS2B/NS3)

DENV-2 NS2B/NS3 = DENV-2 NS2B/NS3 (Dengue virus type 2, UniProt P29990); experiment: DENV-2 NS2B/NS3 protease fluorogenic substrate assay; details: for inhibition at 100 µM: read-out: screening at 100 μM (%), DENV-2 NS2B/NS3, 100 μM compound
[3] = inhibitory percentage against M^pro at 200 μM, NA: no activity
[4] = IC50 at substrate 50 μM, binding mechanism study, Boc-Gly-Arg-Arg-AMC 50 μM
[5] = IC50 at substrate 100 μM, binding mechanism study, Boc-Gly-Arg-Arg-AMC 100 μM
[6] = IC50 at substrate 150 μM, binding mechanism study, Boc-Gly-Arg-Arg-AMC 150 μM
[7] = IC50 at substrate 200 μM, binding mechanism study, Boc-Gly-Arg-Arg-AMC 200 μM
[8] = ZIKV NS2B/NS3, substrate 100 μM, read-out: IC50

T2 sequence (Q32ZE1 1421-1460): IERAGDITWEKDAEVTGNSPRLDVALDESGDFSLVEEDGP
T2 sequence (Q32ZE1 1499-1676): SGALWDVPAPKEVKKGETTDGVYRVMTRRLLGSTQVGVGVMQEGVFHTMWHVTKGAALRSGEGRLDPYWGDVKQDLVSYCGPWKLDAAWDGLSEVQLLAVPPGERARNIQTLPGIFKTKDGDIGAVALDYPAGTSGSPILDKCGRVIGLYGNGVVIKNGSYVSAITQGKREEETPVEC
Chain of DENV-2 NS2B/NS3 (P29990 1398-1437): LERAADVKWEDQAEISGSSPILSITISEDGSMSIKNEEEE
Chain of DENV-2 NS2B/NS3 (P29990 1476-1653): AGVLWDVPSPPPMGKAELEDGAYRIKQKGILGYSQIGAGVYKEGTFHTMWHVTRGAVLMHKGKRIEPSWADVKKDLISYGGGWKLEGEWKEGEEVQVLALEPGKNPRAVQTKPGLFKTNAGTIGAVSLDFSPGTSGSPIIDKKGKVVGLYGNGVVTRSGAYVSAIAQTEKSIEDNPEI

Row | Molecule | IC50 (SARS-CoV-2 M^pro) [µM] | inhibition at 200 µM (SARS-CoV-2 M^pro; [3]) [%] | CC50 at 67 h [1] [µM] | CC50 at 67 h [2] [µM] | inhibition at 100 µM (ZIKV NS2B/NS3; ZIKV NS2B/NS3, 100 μM compound) [%] | IC50 (ZIKV NS2B/NS3; [8]) [µM] | inhibition at 100 µM (DENV-2 NS2B/NS3) [%] | inhibition at 20 µM (ZIKV NS2B/NS3; ZIKV NS2B/NS3, 20 μM compound) [%] | other results
1 | methyl 3,5-dihydroxy-4-methoxybenzoate [Compound 2m] | – | – | – | – | – | – | – | – | effect at 200 μM (%) (SARS-CoV-2 M^pro; [3]): 44.2%
2 | CC(C)=CCCC(C)CCOC(=O)c1cc(O)c(O)c(O)c1 (centres unmarked) [Compound 2g] | 88.7 ± 11.6 | 73.3 | 32.1 ± 3.4 | 82.1 ± 31.5 | 97 ± 1.1 | 1.9 ± 0.1 | 28 ± 2 | – | IC50 (ZIKV NS2B/NS3; [4]): 2.93 µM; IC50 (ZIKV NS2B/NS3; [5]): 2.48 µM; IC50 (ZIKV NS2B/NS3; [6]): 2.96 µM; IC50 (ZIKV NS2B/NS3; [7]): 2.03 µM; screening at 20 μM (%) (ZIKV NS2B/NS3; ZIKV NS2B/NS3, 20 μM compound): 99 ± 0.4%; mechanism of inhibition (ZIKV NS2B/NS3): noncompetitive; inhibition at 20 µM (ZIKV NS2B/NS3): 99%
3 | CCCCCCCCCCCCCCOC(=O)c1cc(O)c(O)c(O)c1 [Compound 2b] | – | – | – | – | – | 84.9 ± 9 | 21 ± 3 | – | inhibition at 20 µM (ZIKV NS2B/NS3): 64 ± 2.5%; inhibition at 100 µM (ZIKV NS2B/NS3): 55 ± 2.3%
4 | CC(C)=CCCC(C)=CCOC(=O)c1cc(O)c(O)c(O)c1 [Compound 2f] | 9.5 ± 1 | 97 | 72.1 ± 7.3 | 48.4 ± 13.2 | 99 ± 0.4 | 2.7 ± 0.3 | > 50 | – | IC50 (ZIKV NS2B/NS3; [4]): 3.2 µM; IC50 (ZIKV NS2B/NS3; [5]): 3.04 µM; IC50 (ZIKV NS2B/NS3; [6]): 3.6 µM and 3.61 µM; IC50 (ZIKV NS2B/NS3; [7]): 3.78 µM; screening at 20 μM (%) (ZIKV NS2B/NS3; ZIKV NS2B/NS3, 20 μM compound): 98 ± 1.1%; mechanism of inhibition (ZIKV NS2B/NS3): noncompetitive; inhibition at 20 µM (ZIKV NS2B/NS3): 98%
5 | C=CCCOC(=O)c1cc(O)c(O)c(O)c1 [Compound 2c] | 35.8 ± 4.5 | 80.4 | 38.8 ± 4.4 | > 150 | 48 ± 2.2 | > 100 | 18 ± 3 | 25 ± 2.6 | –
6 | CCC=CCCOC(=O)c1cc(O)c(O)c(O)c1 [Compound 2k] | – | 41.9 | – | – | 100 ± 0.1 | 6.1 ± 0.6 | 28 ± 4 | 86 ± 0.8 | –
7 | C=CCOC(=O)c1cc(O)c(O)c(O)c1 [Compound 2d] | 12.4 ± 2.4 | 94.3 | 28.5 ± 3.2 | > 150 | 53 ± 1.7 | 92.5 ± 3.1 | 29 ± 1 | 25 ± 2.2 | –
8 | O=c1c2ccccc2[se]n1-c1ccccc1 [Ebselen, reference compound] | – | – | – | – | – | – | – | – | effect (%) of positive control (SARS-CoV-2 M^pro; Ebselen at 10 μM): 90%
9 | CC1(C)CC[C@]2(C)CC=C3[C@]4(C)CC[C@H]5C(C)(C)[C@@H](O)CC[C@]5(C)[C@H]4CC[C@@]3(C)[C@@H]2C1 [Compound 1, taraxerol] | – | – | – | – | – | – | – | – | effect at 200 μM (%) (SARS-CoV-2 M^pro; [3]): 48.0%; inhibition at 200 µM (SARS-CoV-2 M^pro): 48%
10 | CC1(C)CC[C@]2(C)CC=C3[C@]4(C)CC[C@H]5C(C)(C)C(=O)CC[C@]5(C)[C@H]4CC[C@@]3(C)[C@@H]2C1 [Compound 1a, taraxerone] | – | – | – | – | – | – | – | – | effect at 200 μM (%) (SARS-CoV-2 M^pro; [3]): 84.0%; obs. (SARS-CoV-2 M^pro): SP^#; inhibition at 200 µM (SARS-CoV-2 M^pro): 84%; solubility during the biological testing (SARS-CoV-2 M^pro): low solubility
11 | CC(C)CCOC(=O)c1cc(O)c(O)c(O)c1 [Compound 2e] | 2.6 ± 1 | 99.5 | 47 ± 6.5 | > 150 | 99 ± 0.2 | 13 ± 0.4 | > 50 | 72 ± 3.1 | –
12 | COC(=O)c1cc(O)c(O)c(O)c1 [Compound 2, methyl gallate] | 4.5 ± 1.8 | – | 52.9 ± 19.2 | > 150 | – | – | – | – | effect at 200 μM (%) (SARS-CoV-2 M^pro; [3]): 68.0%; inhibition at 200 µM (SARS-CoV-2 M^pro): 68%
13 | O=C(OCCCc1ccccc1)c1cc(O)c(O)c(O)c1 [Compound 2h] | – | 45.1 | – | – | 99 ± 0.2 | 4.8 ± 0.5 | 20 ± 1 | – | screening at 20 μM (%) (ZIKV NS2B/NS3; ZIKV NS2B/NS3, 20 μM compound): 96 ± 0.4%; inhibition at 20 µM (ZIKV NS2B/NS3): 96%
14 | CC(C)OC(=O)c1cc(O)c(O)c(O)c1 [Compound 2a] | 20.7 ± 8.2 | 78 | 78.5 ± 8.1 | > 150 | 98 ± 0.5 | 19.8 ± 0.5 | 48 ± 1 | 51 ± 3.4 | IC50 (DENV-2 NS2B/NS3; IC50 (μM), DENV-2 NS2B/NS3, substrate 100 μM): > 100 µM
15 | O=C(OCCc1ccccc1)c1cc(O)c(O)c(O)c1 [Compound 2j] | – | 60.8 | 22.9 ± 3.2 | > 150 | 82 ± 2.7 | 19.7 ± 2.1 | 22 ± 1 | 50 ± 3.8 | obs. (SARS-CoV-2 M^pro): SP^#; solubility during the biological testing (SARS-CoV-2 M^pro): solubility problems
16 | C=CC(C)(CCC=C(C)C)OC(=O)c1cc(O)c(O)c(O)c1 (centres unmarked) [Compound 2i] | 4 ± 0.9 | 80 | 98.9 ± 5 | > 150 | – | – | – | – | –
17 | COC(=O)c1cc(OC)c(OC)c(OC)c1 [Compound 2l, Methyl 3,4,5-trimethoxybenzoate] | – | 55.5 | > 150 | > 150 | – | – | – | – | obs. (SARS-CoV-2 M^pro): SP^#; solubility during the biological testing (SARS-CoV-2 M^pro): solubility problems
